13 molecules from ChEMBL document CHEMBL1139247 (Bioorg Med Chem Lett, 2009) can be followed below.

As a reminder, the IC50 is the concentration that gives 50% inhibition. Broadly, the clearance is the rate of elimination divided by the concentration. High values mean efficient removal, low ones inefficient removal. Broadly, the bioavailability is the share of a dose that reaches the circulation, judged against a reference dose that is usually intravenous. Read a high bioavailability as much systemic uptake. Usually half-life stands for the time needed for the level to fall by half in the phase considered. By AUC is commonly meant concentration integrated over time. Low values mean less exposure, high ones more exposure. Usually fraction unbound stands for the share of the substance not bound to proteins or other matrix. A low value points to extensive binding.

The nature of series [1]: Displacement of [3H]gabapentin from alpha2-delta subunit of voltage gated calcium channel in pig brain membrane. Format: cell membranes, Sus scrofa.
Series [2] is described as follows: Displacement of [3H]leucine from Large neutral amino acids transporter system L in CHO cells. It is filed as cell-based, Cricetulus griseus. In general terms: In a radioligand displacement assay an active substance lowers the binding of a labelled ligand.
Series [3] concerns Rattus norvegicus. As to the kind of experiment: Reduction in renal clearance in Wistar rat at 3 mg/kg, iv after 5 mins in presence of probenecid relative to control. The settings on record: in vivo. Also noted: dose 3 mg/kg, route intravenous. It is filed as ADME, organism-based.
A short description of series [4]: Clearance in rat. Format: ADME, organism-based. The settings on record: in vivo.
Series [5] concerns Mus musculus. The series can be described thus: Anxiolytic activity in DBA/2 mouse assessed as restoration of punished drinking behavior at 30 mg/kg, po relative to pregabalin. Format: functional.
Series [6] in a line: Bioavailability in rat. Format: ADME, organism-based. The settings on record: in vivo.
In series [7] the test system is Mus musculus. The series can be described thus: Anticonvulsant activity in DBA/2 mouse assessed as protection from audiogenically-induced tonic seizures at 30 mg/kg, po after 1 hr. It is filed as functional.
Series [8] in a line: Volume of distribution at steady state in rat. It is filed as ADME, organism-based. The settings on record: in vivo, read-out: Vdss.
For series [9], the system named is Rattus norvegicus. The series can be described thus: Reduction in renal clearance in Wistar rat at 3 mg/kg, iv after 5 mins in presence of cimetidine relative to control. Format: ADME, organism-based. Details: dose 3 mg/kg, route intravenous. The settings on record: in vivo.
Series [10] is described as follows: Half life in rat plasma. Format: ADME, organism-based.
The nature of series [11]: AUC in rat. It is filed as ADME, organism-based. The settings on record: plasma.
Series [12] can be described thus: Plasma concentration in Sprague-Dawley rat at 30 mg/kg, po after 2 hrs. It is filed as ADME, organism-based. Also noted: dose 30 mg/kg, route oral.
Series [13] can be described thus: Unbound fraction in rat. The settings on record: in vivo. Format: ADME, organism-based.
The nature of series [14]: Drug level in Sprague-Dawley rat brain at 30 mg/kg, po after 2 hrs.

With `NCC1(Cc2nnn[nH]2)CCCCC1`, the figures for the concentration for half-maximal inhibition (IC50) in series [1] and in series [2] were 0.1 µM and over 10000 µM, respectively.
Regarding `Cn1nnnc1CC1(CN)CCCCC1`, the IC50 in series [1] was over 10 µM.
`NCC1(Cc2noc(=O)[nH]2)CCCCC1`: the entries for the “reduction in CL_renal” value with Rattus norvegicus [3] and with Rattus norvegicus [9] were 57% and 35%, respectively. For the same molecule, the clearance in series [4] was found to be 20.3 mL/min/kg. In addition, the Activity turned out to be 11% with Mus musculus [5] and 20% with Mus musculus [7]. In series [6], this molecule displayed a bioavailability of 97%. In addition, the Vd in [8] was found to be 1.25 L/kg. Also, in series [10], the half-life is 1.6 h. The same molecule had an AUC in series [11] of 2200 ng·h/mL. Besides, the concentration at 2 h in series [12] worked out at 15000 ng/mL. For the same molecule, the IC50 in [2] is over 10000 µM. The same molecule came in with a fraction unbound in series [13] of over 0.9.
As to `NCC1(Cc2noc(=O)[nH]2)CCCCCC1`, in series [1], the IC50 is 0.158 µM.
Same read-out and setting: the value for `NCC1(Cc2noc(=O)[nH]2)CCCC1` was 1.14 µM; that for `NCC1(Cc2noc(=O)[nH]2)CCCCCCC1` was 5.6 µM; that for `C[C@@H]1CCC[C@@](CN)(Cc2noc(=O)[nH]2)C1` was 0.084 µM.
`C[C@@H]1C[C@H](C)C[C@@](CN)(Cc2noc(=O)[nH]2)C1`: the IC50 in series [1] was found to be 0.07 µM.
Same read-out and setting: then `C[C@@H]1C[C@H](C)C[C@](CN)(Cc2noc(=O)[nH]2)C1`, with over 10 µM; and `Cn1c(CC2(CN)CCCCC2)noc1=O`, with over 10 µM.
On the same count and under the same terms, the value for `CC(C)CC(CN)Cc1noc(=O)[nH]1` (racemic) was 1.5 µM.
Consider `NCC1(CC(=O)O)CCCCC1` [GABAPENTIN], for which the figures for the Activity with Mus musculus [5] and in the series on Mus musculus [7] were 60% and 100%, respectively. The IC50 came to 0.07 µM in series [1] and 30 µM in series [2]. Besides, the half-life in [10] was 1.5 h.
`CC(C)C[C@H](CN)CC(=O)O` [PREGABALIN] returned a clearance in series [4] of 2.9 mL/min/kg. Moreover, the Activity in the series with Mus musculus [5] and in the series with Mus musculus [7] was 100% each time. This molecule gave a bioavailability in series [6] of 83%. Besides, in [8], the Vd was 0.79 L/kg. Moreover, the concentration at 2 h in series [14] is 7360 ng/mL; in series [12], 25600 ng/mL. Moreover, the half-life in series [10] is 2.7 h. Moreover, in series [11], the AUC was found to be 14800 ng·h/mL. Moreover, in series [2], the IC50 was found to be 158 µM.
